Data reported in PubChem BioAssay (NCI).
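Compound exposure: 48 hours, 5 concentrations, 96-well plates. GI50 = concentration required for 50% inhibition of growth. Definition used: TGI = concentration required for complete inhibition of growth.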

Legend:
Experiment in all cases: growth of human tumour cells (NCI), 48 h
RPMI-8226 leukemia = tested on: RPMI-8226 leukemia
SF-268 CNS = tested on: SF-268 CNS
SF-539 CNS = tested on: SF-539 CNS
A498 renal = tested on: A498 renal
A549 NSCLC = tested on: A549 NSCLC
UACC-62 melanoma = tested on: UACC-62 melanoma
OVCAR-5 ovarian = tested on: OVCAR-5 ovarian
ACHN renal = tested on: ACHN renal
UO-31 renal = tested on: UO-31 renal
NCI-H226 lung = tested on: NCI-H226 lung
UACC-257 melanoma = tested on: UACC-257 melanoma
MCF7 breast = tested on: MCF7 breast
MDA-MB-435 = tested on: MDA-MB-435

Compound	TGI (RPMI-8226 leukemia) [µM]	TGI (SF-268 CNS) [µM]	TGI (SF-539 CNS) [µM]	TGI (A498 renal) [µM]	TGI (A549 NSCLC) [µM]	TGI (UACC-62 melanoma) [µM]	TGI (OVCAR-5 ovarian) [µM]	TGI (ACHN renal) [µM]	TGI (UO-31 renal) [µM]	TGI (NCI-H226 lung) [µM]	TGI (UACC-257 melanoma) [µM]	TGI (MCF7 breast) [µM]	TGI (MDA-MB-435) [µM]	GI50 (RPMI-8226 leukemia) [µM]	GI50 (MCF7 breast) [µM]	GI50 (UACC-62 melanoma) [µM]	GI50 (OVCAR-5 ovarian) [µM]	GI50 (ACHN renal) [µM]	GI50 (NCI-H226 lung) [µM]	GI50 (UACC-257 melanoma) [µM]
CC1CC(c2ccc([N+](=O)[O-])cc2)=Nc2ccccc2S1=O (centres undefined)	31.9	44.1	45	43.2	41.4	38.8	70	40.6	26.3	80.4	42.1	–	–	–	–	–	–	–	–	–
Cc1ccc(C(=O)N/N=C(\N=Nc2ccccc2)c2ccc(N(CCC#N)CCC#N)cc2C)cc1	> 100	61.7	39.9	> 100	> 100	> 100	> 100	> 100	> 100	> 100	> 100	> 100	> 100	–	–	–	–	–	–	–
O=c1[nH]c(=S)c2[nH]c(=O)n(-c3ccccc3)c2[nH]1	–	> 100	–	> 100	> 100	> 100	> 100	> 100	> 100	> 100	> 100	–	> 100	–	–	–	–	–	–	–
COc1ccc2oc3c(ccc[n+]3C)c(=O)c2c1	–	> 100	> 100	> 100	> 100	> 100	> 100	> 100	> 100	> 100	–	> 100	> 100	–	–	–	–	–	–	–
CC(=O)O[C@@H]1CN(S(=O)(=O)c2ccc(C)cc2)C[C@@H]1C1CCCCC1	67.7	52.5	0.609	55.1	–	33.4	> 100	> 100	> 100	34.6	35.7	42.1	44.6	–	–	–	–	–	–	–
O=C1NC(=O)C2(CCc3ccc(N(CCCl)CCCl)cc32)N1 (centres undefined)	99.2	73.5	22.2	33.1	> 65	15.8	50.2	–	48	21.7	45.2	61.4	–	–	–	–	–	–	–	–
C/C=C1/C(=O)O[C@]23C=C[C@@H]4C(C(=O)OC)=CO[C@H](O[C@@H]12)[C@@H]43	3.4	5.62	7.39	1.58	11.1	2.89	7.69	–	6.98	5.36	2.31	3.76	–	–	–	–	–	–	–	–
COc1cc2c(cc1O)N=C[C@@H]1CCC(O)N1C2=O (mixture of isomers)	2.39	6.25	1.83	0.928	71.6	1.5	18.8	–	2.79	2.08	7.65	37	–	–	–	–	–	–	–	–
Nc1ccc2c(c1)S(=O)(=O)c1cc(N)ccc1-2	–	> 100	> 100	> 100	> 100	> 100	> 100	> 100	> 100	> 100	> 100	> 100	> 100	–	–	–	–	–	–	–
O=c1ccc2nc3ccc(O)cc3oc-2c1	30.8	> 100	> 59.8	> 100	> 100	5.55	> 100	> 100	> 100	> 100	26.4	> 52.7	3.23	–	–	–	–	–	–	–
CC(CNc1nc(Nc2ccc(Cl)c(Cl)c2)nc(C(Cl)(Cl)Cl)n1)N(C)C (centres undefined)	4.58	–	–	–	–	3.11	3.2	2.94	–	3.51	3.32	3.16	–	1.85	1.7	1.71	1.61	1.56	1.8	1.75
